Where only a bound is given, the exact number is not on record here.

The target of the first experiment is T1, human Syk (GST-Syk) (Homo sapiens, UniProt P43405).
T1 construct: A cDNA fragment encoding human Syk openreading frame was cloned; made in house; host or cells: Sf21 insect cells (baculovirus, transfer vector pAcG2T)
The experiment in a line: Syk tyrosine kinase inhibitory assay. The conditions noted are these: Table 11; read-out: Activity grade. Format: biochemical. In short, it runs like this:
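Readout: streptavidin-captured biotin-AL peptide probed with europium-4G10 anti-phosphotyrosine, time-resolved fluorescence (ex 340/em 615 nm). Reaction ran 1 h at room temperature with 30 μM ATP, 3 μM peptide, 0.65 nM Sf21-expressed GST-Syk and 0.25% DMSO, pH 8.0.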
Regarding `COc1cc(-c2cc3nccn3c(Nc3ccccc3)n2)ccc1O` [Example 12-19], the IC50 is less than 500 nM. `COc1cc(-c2cc3nccn3c(Nc3ccccc3)n2)ccc1NCCCN1CCCC1=O` [Example 12-40]: the IC50 is less than 500 nM. Turning to `COc1cc(-c2cc3nccn3c(Nc3ccccc3)n2)ccc1OCc1ccccc1` [Example 12-18], the IC50 was in the range of 500 to 2000 nM.

On to `COCCCN(C)c1ccc(-c2cc3nccn3c(Nc3ccc(OC)cc3)n2)cc1OC` [Example 12-56], for which the IC50 was less than 500 nM. The same measure, in the same setting: the result for `CCOCCOc1cc(-c2cc3nccn3c(Nc3ccccc3)n2)ccc1OC` [Example 12-28] reads less than 500 nM; that for `COc1ccc(-c2cc3nccn3c(Nc3ccccc3)n2)cc1OCCN1CCOCC1` [Example 12-25], less than 500 nM; that for `COc1cc(-c2cc3nccn3c(Nc3ccccc3)n2)ccc1OCCCN1CCN(C)CC1` [Example 12-36], less than 500 nM.

Still in this experiment, the particulars now being: Table 13; read-out: Activity grade.
In the case of `COc1ccc(-c2cc3nccn3c(SC3CCCCC3)n2)cc1OC` [Example 14-29], the IC50 is less than 500 nM. With `CCCCCSc1nc(-c2ccc(OC)c(OC)c2)cc2nccn12` [Example 14-26], the IC50 lay in the range of 500 to 2000 nM.

In the case of `COc1ccc(-c2cc3nccn3c(SCCc3ccccc3)n2)cc1OC` [Example 14-25], the IC50 lay in the range of 500 to 2000 nM. Turning to `CCC(C)CSc1nc(-c2ccc(OC)c(OC)c2)cc2nccn12` (centres unmarked) [Example 14-23], the IC50 was 500 to 2000 nM. Consider `COc1ccc(-c2cc3nccn3c(SCCc3cnccn3)n2)cc1OC` [Example 14-32], for which the IC50 is less than 500 nM.

The experiment is the same for the next values; noted with them: Table 16; read-out: Activity grade.
Consider `CCSc1nc(-c2ccc(N(C)C)c(OC)c2)cc2nccn12` [Example 17-15], for which the IC50 was less than 500 nM. In the case of `CCSc1nc(-c2ccc(NCCCN(C)C)c(OC)c2)cc2nccn12` [Example 17-13], the IC50 was less than 500 nM.

The same experiment, now with this note: Table 17; IC50 classes; read-out: Activity grade.
In the case of `COc1ccc(-c2cc3nccn3c(Nc3ccccc3)n2)cc1NC(C)=O` [Example 3], the IC50 is less than 500 nM. With `COc1ccc(-c2cc3nccn3c(Nc3cc(N(C)C)ccc3C(N)=O)n2)cc1OC` [Example 13], the IC50 is less than 500 nM. Regarding `COc1ccc(-c2cc3nccn3c(Nc3ccccc3)n2)cc1N` [compound 1], the IC50 lay in the range of 500 to 2000 nM. For `COc1ccc(-c2cc3nccn3c(Nc3ccc(CC(N)C(=O)O)cc3)n2)cc1OC` (centres unmarked) [Example 30], the IC50 was less than 500 nM.

The same experiment, now with this note: in vitro; compounds as yielded by solid phase synthesis, purity about 40 to 90%.
As for `COc1ccc(-c2cc3nccn3c(N3CCN(c4ccc(Cl)c(Cl)c4)CC3)n2)cc1OC` [Example 9-42], the “Activity grade (IC50 class)” value is recorded as “C-D”. In the case of `COc1ccc(-c2cc3nccn3c(N3CCN(C(c4ccc(F)cc4)c4ccc(F)cc4)CC3)n2)cc1OC` [Example 9-45], the “Activity grade (IC50 class)” value is reported as “C-D”. In the case of `CCSc1nc(-c2ccc(S(=O)(=O)N3CCC(C(=O)O)CC3)c(OC)c2)cc2nccn12` [Example 2-10], the “Activity grade (IC50 class)” value is given as “C-D”. Consider `COc1ccc(-c2cc3nccn3c(N3CCC(Cc4ccccc4)CC3)n2)cc1OC` [Example 9-59], for which the “Activity grade (IC50 class)” value is “C-D”.

Staying with this experiment, now noted: in vitro; compounds as yielded by solid phase synthesis, purity about 40 to 90%; read-out: Activity grade (IC50 class).
Turning to `COc1ccc(-c2cc3nccn3c(Nc3ccc(C(N)=O)cc3)n2)cc1OC` [Example 11-36], the IC50 was less than 500 nM. Consider `COc1ccc(-c2cc3nccn3c(N(C)c3ccc(S(=O)(=O)O)cc3)n2)cc1OC` [Example 11-6], for which the IC50 fell in the range of 2000 to 10000 nM. Take `CCSc1cc(-c2cccc([N+](=O)[O-])c2)cc2nccn12` [Example 8-6]: the IC50 was in the range of 500 to 2000 nM. For `COc1ccc(-c2cc3nccn3c(N(C)c3ccc([N+](=O)[O-])cc3)n2)cc1OC` [Example 11-43], the IC50 was less than 500 nM. On to `CCSc1nc(-c2ccc(OC(=O)C(C)C)c(OC)c2)cc2nccn12` [Example 3-8], for which the IC50 fell in the range of 500 to 2000 nM. For `COc1ccc(-c2cc3nccn3c(Nc3cccc(N)c3)n2)cc1OC` [Example 11-124], the IC50 is less than 500 nM. Same read-out and setting: with `COc1ccc(-c2cc3nccn3c(N3CCC(O)(c4ccc(Cl)cc4)CC3)n2)cc1OC` [Example 9-64] the figure was 2000 to 10000 nM; with `COc1ccc(-c2cc3nccn3c(Sc3cccc(Cl)c3Cl)n2)cc1OC` [Example 13-5], 2000 to 10000 nM. On to `COc1ccc(-c2cc3nccn3c(Nc3ccc(OC(F)(F)F)cc3)n2)cc1OC` [Example 11-95], for which the IC50 was less than 500 nM. Consider `COc1ccc(-c2cc3nccn3c(Sc3ccc(N4CCN(C)CC4)cc3)n2)cc1OC` [Example 13-16], for which the IC50 was less than 500 nM. `COc1ccc(-c2cc3nccn3c(NCc3ccccc3)n2)cc1OC` [Example 9-10]: the IC50 fell in the range of 500 to 2000 nM. Regarding `COc1ccc(-c2cc3nccn3c(N3CCN(c4ccccc4OC)CC3)n2)cc1OC` [Example 9-34], the IC50 is 2000 to 10000 nM. On the same count and under the same terms, with `CCSc1nc(-c2ccc(OC)c(OC(C)C)c2)cc2nccn12` [Example 4-3] the figure was less than 500 nM; with `COc1ccc(-c2cc3nccn3c(Nc3cc(N(C)C)ccc3C(N)=O)n2)cc1OC` [Example 13], less than 500 nM. Take `COc1ccc(-c2cc3nccn3c(Sc3cc(C)ccc3C)n2)cc1OC` [Example 13-1]: the IC50 lay within 500 to 2000 nM. Turning to `COc1ccc(-c2cc3nccn3c(N3CCN(c4ccccn4)CC3)n2)cc1OC` [Example 9-38], the IC50 was 500 to 2000 nM. Consider `COc1ccc(-c2cc3nccn3c(Nc3cccc(S(N)(=O)=O)c3)n2)cc1OC` [Example 11-114], for which the IC50 is less than 500 nM. With `CCSc1nc(-c2ccc(OC)c(OCCCN3CCOCC3)c2)cc2nccn12` [Example 5-11], the IC50 was in the range of 500 to 2000 nM. Still for that read-out and setting: the result for `COc1ccc(-c2cc3nccn3c(N3CCN(c4ccccc4)CC3)n2)cc1OC` [Example 9-33] reads 2000 to 10000 nM; that for `COc1ccc(-c2cc3nccn3c(Nc3ccc(F)c(F)c3)n2)cc1OC` [Example 11-57], less than 500 nM.

In the case of `CCNC(=O)Oc1ccc(-c2cc3nccn3c(SCC)n2)cc1OC` [Example 3-9], the IC50 is 500 to 2000 nM. For `CCSc1nc(-c2ccc(OCCCN(C)CCO)c(OC)c2)cc2nccn12` [Example 5-3], the IC50 was less than 500 nM. In the case of `COc1ccc(Nc2nc(-c3ccc(OCCN4CCOCC4)c(OC)c3)cc3nccn23)cc1` [Example 9-96], the IC50 was less than 500 nM. For the molecule `COc1ccc(-c2cc3nccn3c(N3C(=O)c4ccccc43)n2)cc1OC` [Example 9], the IC50 lay within 2000 to 10000 nM.

Take `COc1ccc(Nc2nc(-c3ccc(OC)c(OC)c3)cc3nccn23)cc1NCCN1CCOCC1` [Example 11-111]: the IC50 lay within 2000 to 10000 nM. Take `COc1ccc(-c2cc3nccn3c(N3CCCC3)n2)cc1OC` [Example 9-55]: the IC50 was in the range of 500 to 2000 nM. The same measure, in the same setting: with `COc1ccc(-c2cc3nccn3c(Nc3ccc(I)cc3C(N)=O)n2)cc1OC` [Example 11-78] the figure was less than 500 nM.

Regarding `COc1ccc(-c2cc3nccn3c(Nc3cccc(S(=O)(=O)CCO)c3)n2)cc1OC` [Example 11-27], the IC50 is less than 500 nM. For the molecule `COc1ccc(-c2cc3nccn3c(Sc3ccc(CCCC(=O)O)cc3)n2)cc1OC` [Example 13-21], the IC50 lay in the range of 2000 to 10000 nM. As for `COc1ccc(N2CCN(c3nc(-c4ccc(OC)c(OC)c4)cc4nccn34)CC2)cc1` [Example 9-40], the IC50 is 2000 to 10000 nM. `COc1ccc(-c2cc3nccn3c(N3CCN(c4ccc(Cl)cc4)CC3)n2)cc1OC` [Example 9-39]: the IC50 was in the range of 2000 to 10000 nM. Still for that read-out and setting: the result for `COc1ccc(-c2cc3nccn3c(Nc3ccc(CCC4=NC(C)(C)CO4)cc3)n2)cc1OC` [Example 9-22] reads less than 500 nM; that for `COc1cccc(Nc2nc(-c3ccc(OC)c(OC)c3)cc3nccn23)c1` [Example 11-58], less than 500 nM; that for `COc1ccc(-c2cc3nccn3c(SCC3CC3)n2)cc1OC` [Example 9-7], less than 500 nM.

These data come from patent US6911443B2 (Bayer Aktiengesellschaft, priority 2000, dated 2005).
